Reference: ChEMBL document CHEMBL1136988, “1-amino-4-benzylphthalazines as orally bioavailable smoothened antagonists with antitumor activity” (J Med Chem, 2009)

Assays:
[1] = molecular target: T1, Protein smoothened (Mus musculus, UniProt P56726); assay type: cell-based, TM3
Description: Inhibition of Smoothened receptor in mouse TM3 cells transfected with pTA-8xGli-Luc reporter gene assessed as inhibition of 25 nM 3-chloro-4,7-difluoro-N-(4-methoxy-3-(pyridin-4-yl)benzyl)-N-(4-(methylamino)cyclohexyl)benzo[b]thiophene-2-carboxamide-induced Hedgehog pathway activation by Gli shift assay

[2] = molecular target: Protein smoothened (Homo sapiens, UniProt Q99835); experiment: Displacement of [3H]3-chloro-4,7-difluoro-N-(4-methoxy-3-(pyridin-4-yl)benzyl)-N-(4-(methylamino)cyclohexyl)benzo[b]thiophene-2-carboxamide from human Smoothened receptor expressed in CHO-K1 cells by membrane filter binding assay; assay type: cell-based
[3] = molecular target: T1, Protein smoothened; experiment: Displacement of [3H]3-chloro-4,7-difluoro-N-(4-methoxy-3-(pyridin-4-yl)benzyl)-N-(4-(methylamino)cyclohexyl)benzo[b]thiophene-2-carboxamide from mouse Smoothened receptor expressed in CHO-K1 cells by membrane filter binding assay; assay type: cell-based
[4] = molecular target: T1, Protein smoothened; experiment: Inhibition of Smoothened receptor in mouse TM3 cells transfected with pTA-8xGli-Luc reporter gene assessed as inhibition of 1 nM 3-chloro-4,7-difluoro-N-(4-methoxy-3-(pyridin-4-yl)benzyl)-N-(4-(methylamino)cyclohexyl)benzo[b]thiophene-2-carboxamide-induced Hedgehog pathway activation by Gli shift assay; assay type: cell-based

T1 sequence (P56726 whole entry): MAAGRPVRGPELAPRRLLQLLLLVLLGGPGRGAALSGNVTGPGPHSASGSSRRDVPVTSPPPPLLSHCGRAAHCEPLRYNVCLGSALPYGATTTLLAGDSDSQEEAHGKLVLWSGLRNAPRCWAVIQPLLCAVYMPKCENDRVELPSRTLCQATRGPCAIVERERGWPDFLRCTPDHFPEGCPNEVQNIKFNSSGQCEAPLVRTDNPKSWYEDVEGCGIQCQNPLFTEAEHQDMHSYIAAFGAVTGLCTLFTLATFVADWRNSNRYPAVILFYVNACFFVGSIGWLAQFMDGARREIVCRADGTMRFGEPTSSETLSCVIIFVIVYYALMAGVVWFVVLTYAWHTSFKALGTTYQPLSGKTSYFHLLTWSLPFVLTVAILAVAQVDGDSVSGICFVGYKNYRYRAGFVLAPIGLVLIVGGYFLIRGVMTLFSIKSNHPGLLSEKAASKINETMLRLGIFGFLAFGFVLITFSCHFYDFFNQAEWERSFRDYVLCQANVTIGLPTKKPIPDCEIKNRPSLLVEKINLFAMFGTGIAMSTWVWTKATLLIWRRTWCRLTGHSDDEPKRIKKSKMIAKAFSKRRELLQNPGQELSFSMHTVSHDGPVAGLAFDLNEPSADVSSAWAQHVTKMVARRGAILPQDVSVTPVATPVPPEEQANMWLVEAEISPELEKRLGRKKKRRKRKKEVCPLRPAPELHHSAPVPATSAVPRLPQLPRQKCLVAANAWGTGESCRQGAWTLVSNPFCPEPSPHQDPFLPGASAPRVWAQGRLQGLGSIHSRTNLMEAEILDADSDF
Protein smoothened (Homo sapiens, UniProt Q99835), sequence (Q99835 whole entry): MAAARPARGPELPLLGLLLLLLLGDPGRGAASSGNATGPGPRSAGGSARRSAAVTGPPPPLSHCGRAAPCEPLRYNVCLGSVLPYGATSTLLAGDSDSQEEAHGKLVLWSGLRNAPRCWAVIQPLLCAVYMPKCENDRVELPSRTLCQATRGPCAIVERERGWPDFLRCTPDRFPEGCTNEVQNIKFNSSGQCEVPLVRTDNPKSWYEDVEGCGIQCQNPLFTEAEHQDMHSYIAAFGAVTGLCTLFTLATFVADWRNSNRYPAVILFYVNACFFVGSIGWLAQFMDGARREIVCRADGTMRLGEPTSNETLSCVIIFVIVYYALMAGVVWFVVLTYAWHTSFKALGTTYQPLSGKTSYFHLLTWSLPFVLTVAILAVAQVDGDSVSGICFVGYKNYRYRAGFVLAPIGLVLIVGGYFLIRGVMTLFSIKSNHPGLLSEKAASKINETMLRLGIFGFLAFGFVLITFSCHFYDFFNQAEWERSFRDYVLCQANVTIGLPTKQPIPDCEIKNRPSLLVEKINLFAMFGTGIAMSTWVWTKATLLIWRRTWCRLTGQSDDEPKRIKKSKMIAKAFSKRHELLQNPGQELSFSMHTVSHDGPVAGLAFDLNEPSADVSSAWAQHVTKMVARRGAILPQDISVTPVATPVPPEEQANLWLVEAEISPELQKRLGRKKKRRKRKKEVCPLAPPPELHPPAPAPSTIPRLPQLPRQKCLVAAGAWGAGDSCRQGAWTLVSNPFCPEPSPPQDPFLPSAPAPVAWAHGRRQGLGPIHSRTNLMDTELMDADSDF

IC50 [1] [µM] | IC50 [2] [µM] | IC50 [3] [µM] | IC50 [4] [µM] | Structure (SMILES)
1.51 | 0.401 | 0.386 | 0.382 | N#Cc1ccc(N2CCC(c3cn(Cc4ccccc4)c4ccccc34)CC2)nc1
0.735 | 0.059 | 0.066 | 0.079 | C[C@H]1CN(c2nnc(Cc3ccccc3)c3ccccc23)CCN1c1ccc(C#N)cn1
> 5 | > 5 | > 5 | 3.78 | N#Cc1ccc(C2CCN(c3nnc(Cc4ccccc4)c4ccccc34)CC2)cc1
4.49 | > 5 | 3.69 | 0.69 | c1ccc(N2CCN(c3nnc(Cc4ccncc4)c4ccccc34)CC2)nc1
2.56 | 0.23 | 0.139 | 0.212 | FC(F)(F)c1ccc(N2CCN(c3nnc(Cc4ccccc4)c4occc34)CC2)nc1
0.498 | 0.025 | 0.02 | 0.048 | N#Cc1ccc(N2CCN(c3nnc(Cc4ccc(Cl)cc4)c4ccccc34)CC2)nc1
0.693 | 0.082 | 0.054 | 0.112 | N#Cc1ccc(N2CCN(c3nnc(Cc4cccc(Cl)c4)c4ccccc34)CC2)nc1
0.975 | 0.103 | 0.069 | 0.112 | N#Cc1ccc(N2CCN(c3nnc(Cc4ccc(F)cc4)c4ccccc34)CC2)nc1
0.042 | 0.015 | 0.006 | 0.0013 | CC(C)(N)c1ccc(N2CCN(c3nnc(Cc4ccccc4)c4ccccc34)CC2)nc1
0.821 | 0.112 | 0.071 | 0.069 | N#Cc1ccc(N2CCN(c3nnc(Cc4ccccc4)c4ccccc34)CC2)nc1
> 5 | > 5 | > 5 | > 5 | N#Cc1ccc(N2CCN(c3nnc(Cc4ccc(C(=O)O)cc4)c4ccccc34)CC2)nc1
0.222 | 0.067 | 0.061 | 0.038 | CC(O)c1ccc(N2CCN(c3nnc(Cc4ccccc4)c4ccccc34)CC2)nc1 (stereo unspecified)
0.246 | 0.654 | 0.287 | 0.014 | CN(C)Cc1ccc(N2CCN(c3nnc(Cc4ccccc4)c4ccccc34)CC2)nc1
0.327 | 0.196 | 0.096 | 0.035 | CC(=O)NCc1ccc(N2CCN(c3nnc(Cc4ccccc4)c4ccccc34)CC2)nc1
2.25 | 4.24 | 1.1 | 0.414 | c1ccc(Cc2nnc(N3CCN(c4ccccc4)CC3)c3ccccc23)cc1
1.33 | 0.095 | 0.074 | 0.134 | FC(F)(F)c1ccc(N2CCN(c3nnc(Cc4ccccc4)c4ccccc34)CC2)nc1
0.21 | 0.017 | 0.022 | 0.025 | C[C@H]1CN(c2ccc(C#N)cn2)CCN1c1nnc(Cc2ccccc2)c2ccccc12

IC50 [1] [µM] | IC50 [2] [µM] | IC50 [3] [µM] | IC50 [4] [µM] | Structure (SMILES)
2.5 | > 5 | > 5 | 0.91 | N#Cc1ccc(N2CCN(c3cnc(Cc4ccccc4)c4ccccc34)CC2)nc1
0.919 | 0.306 | 0.09 | 0.104 | NS(=O)(=O)c1ccc(N2CCN(c3nnc(Cc4ccccc4)c4ccccc34)CC2)nc1
> 5 | 2.26 | 1.64 | 2.67 | O=C(O)c1ccc(N2CCN(c3nnc(Cc4ccccc4)c4ccccc34)CC2)nc1
1.63 | 0.391 | 0.153 | 0.21 | N#Cc1ccc(N2CCCN(c3nnc(Cc4ccccc4)c4ccccc34)CC2)nc1
0.136 | 0.07 | 0.028 | 0.017 | CC(O)(CO)c1ccc(N2CCN(c3nnc(Cc4ccccc4)c4ccccc34)CC2)nc1 (racemic)
> 5 | > 5 | > 5 | 1.8 | FC(F)(F)c1ccc(N2CCN(c3nnc(Cc4ccccc4)c4ccoc34)CC2)nc1
1.55 | > 5 | > 5 | 0.724 | FC(F)(F)c1ccc(N2CCN(c3nnc(Cc4ccccc4)c4[nH]cnc34)CC2)nc1
0.738 | 0.217 | 0.18 | 0.086 | C[C@@H]1CN(c2ccc(C#N)cn2)CCN1c1nnc(Cc2ccccc2)c2ccccc12
0.345 | 0.021 | 0.01 | 0.055 | OC1(c2ccc(N3CCN(c4nnc(Cc5ccccc5)c5ccccc45)CC3)nc2)CC1
> 5 | 2.93 | 0.165 | 0.265 | COC(=O)c1ccc(Cc2nnc(N3CCN(c4ccc(C#N)cn4)CC3)c3ccccc23)cc1
0.149 | 0.724 | 0.173 | 0.046 | NC(=O)c1ccc(N2CCN(c3nnc(Cc4ccccc4)c4ccccc34)CC2)nc1
2.99 | > 5 | > 5 | 1.43 | N#Cc1ccc(N2CCN(c3ncc(Cc4ccccc4)c4ccccc34)CC2)nc1
0.256 | 0.034 | 0.023 | 0.02 | N#Cc1ccc(Cc2nnc(N3CCN(c4ccc(C#N)cn4)CC3)c3ccccc23)cc1
2.45 | 0.484 | 0.187 | 0.374 | OCc1ccc(N2CCN(c3nnc(Cc4ccccc4)c4ccccc34)CC2)nc1
1.24 | 0.185 | 0.226 | 0.366 | N#Cc1ccc(N2CCN(c3nnc(Cc4ccc(C(F)(F)F)cc4)c4ccccc34)CC2)nc1
0.244 | 0.034 | 0.017 | 0.03 | C[C@@H]1CN(c2nnc(Cc3ccccc3)c3ccccc23)CCN1c1ccc(C#N)cn1
0.772 | 1.24 | 0.643 | 0.258 | c1ccc(Cc2nnc(N3CCN(c4ccccn4)CC3)c3ccccc23)cc1
